ChEMBL document CHEMBL4507318, “Data for DCP probe BAY-985” (2021)
Activity calls are given as the source filed them.

Assays:
[1] = target: Activin receptor type-2B (Homo sapiens) (UniProt Q13705)
[2] = target: Cyclin-dependent kinase 13 (Homo sapiens) (UniProt Q14004)
[3] = target: Cyclin-dependent kinase 8 (Homo sapiens) (UniProt P49336)
[4] = target: Tyrosine-protein kinase ITK/TSK (Homo sapiens) (UniProt Q08881)
[5] = target: Serine/threonine-protein kinase LATS1 (Homo sapiens) (UniProt O95835)
Chain of Serine/threonine-protein kinase LATS1 (Homo sapiens) (O95835 whole entry): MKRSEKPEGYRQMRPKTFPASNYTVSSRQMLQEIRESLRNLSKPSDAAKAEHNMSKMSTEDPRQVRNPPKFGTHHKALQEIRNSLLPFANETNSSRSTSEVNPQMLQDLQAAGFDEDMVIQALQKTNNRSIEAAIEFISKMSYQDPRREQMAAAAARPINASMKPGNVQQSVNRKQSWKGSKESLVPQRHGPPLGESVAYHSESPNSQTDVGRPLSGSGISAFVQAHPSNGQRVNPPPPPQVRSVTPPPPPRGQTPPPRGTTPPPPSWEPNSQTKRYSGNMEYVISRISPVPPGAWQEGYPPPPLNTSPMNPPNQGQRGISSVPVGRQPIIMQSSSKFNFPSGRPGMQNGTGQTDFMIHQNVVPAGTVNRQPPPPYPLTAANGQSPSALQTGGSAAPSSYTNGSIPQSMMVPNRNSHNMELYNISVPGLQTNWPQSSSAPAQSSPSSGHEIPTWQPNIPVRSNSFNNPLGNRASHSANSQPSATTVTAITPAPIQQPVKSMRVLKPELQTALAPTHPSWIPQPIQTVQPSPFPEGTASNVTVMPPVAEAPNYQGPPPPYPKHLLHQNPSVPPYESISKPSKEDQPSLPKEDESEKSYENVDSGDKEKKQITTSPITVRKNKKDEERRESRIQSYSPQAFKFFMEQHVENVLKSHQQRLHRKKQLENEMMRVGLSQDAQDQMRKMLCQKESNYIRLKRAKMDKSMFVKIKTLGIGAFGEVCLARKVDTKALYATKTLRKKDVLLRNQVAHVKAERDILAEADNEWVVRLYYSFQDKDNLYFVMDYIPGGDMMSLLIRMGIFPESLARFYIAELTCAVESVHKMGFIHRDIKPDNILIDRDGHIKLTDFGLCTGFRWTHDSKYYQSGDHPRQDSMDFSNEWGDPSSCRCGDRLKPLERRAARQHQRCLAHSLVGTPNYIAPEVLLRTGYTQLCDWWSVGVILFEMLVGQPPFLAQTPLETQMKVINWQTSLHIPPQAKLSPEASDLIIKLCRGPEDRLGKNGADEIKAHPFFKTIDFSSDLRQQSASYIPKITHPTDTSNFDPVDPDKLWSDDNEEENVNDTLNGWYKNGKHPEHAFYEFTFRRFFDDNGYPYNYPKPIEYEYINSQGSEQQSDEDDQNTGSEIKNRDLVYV

[6] = target: MAP kinase-activated protein kinase 2 (Homo sapiens) (UniProt P49137)
[7] = target: Serine/threonine-protein kinase Nek2 (Homo sapiens) (UniProt P51955)
[8] = target: Mitogen-activated protein kinase kinase kinase 14 (Homo sapiens) (UniProt Q99558)
[9] = target: Phosphorylase b kinase regulatory subunit alpha, liver isoform (Homo sapiens) (UniProt P46019)
Chain of Phosphorylase b kinase regulatory subunit alpha, liver isoform (Homo sapiens) (P46019 whole entry, canonical isoform): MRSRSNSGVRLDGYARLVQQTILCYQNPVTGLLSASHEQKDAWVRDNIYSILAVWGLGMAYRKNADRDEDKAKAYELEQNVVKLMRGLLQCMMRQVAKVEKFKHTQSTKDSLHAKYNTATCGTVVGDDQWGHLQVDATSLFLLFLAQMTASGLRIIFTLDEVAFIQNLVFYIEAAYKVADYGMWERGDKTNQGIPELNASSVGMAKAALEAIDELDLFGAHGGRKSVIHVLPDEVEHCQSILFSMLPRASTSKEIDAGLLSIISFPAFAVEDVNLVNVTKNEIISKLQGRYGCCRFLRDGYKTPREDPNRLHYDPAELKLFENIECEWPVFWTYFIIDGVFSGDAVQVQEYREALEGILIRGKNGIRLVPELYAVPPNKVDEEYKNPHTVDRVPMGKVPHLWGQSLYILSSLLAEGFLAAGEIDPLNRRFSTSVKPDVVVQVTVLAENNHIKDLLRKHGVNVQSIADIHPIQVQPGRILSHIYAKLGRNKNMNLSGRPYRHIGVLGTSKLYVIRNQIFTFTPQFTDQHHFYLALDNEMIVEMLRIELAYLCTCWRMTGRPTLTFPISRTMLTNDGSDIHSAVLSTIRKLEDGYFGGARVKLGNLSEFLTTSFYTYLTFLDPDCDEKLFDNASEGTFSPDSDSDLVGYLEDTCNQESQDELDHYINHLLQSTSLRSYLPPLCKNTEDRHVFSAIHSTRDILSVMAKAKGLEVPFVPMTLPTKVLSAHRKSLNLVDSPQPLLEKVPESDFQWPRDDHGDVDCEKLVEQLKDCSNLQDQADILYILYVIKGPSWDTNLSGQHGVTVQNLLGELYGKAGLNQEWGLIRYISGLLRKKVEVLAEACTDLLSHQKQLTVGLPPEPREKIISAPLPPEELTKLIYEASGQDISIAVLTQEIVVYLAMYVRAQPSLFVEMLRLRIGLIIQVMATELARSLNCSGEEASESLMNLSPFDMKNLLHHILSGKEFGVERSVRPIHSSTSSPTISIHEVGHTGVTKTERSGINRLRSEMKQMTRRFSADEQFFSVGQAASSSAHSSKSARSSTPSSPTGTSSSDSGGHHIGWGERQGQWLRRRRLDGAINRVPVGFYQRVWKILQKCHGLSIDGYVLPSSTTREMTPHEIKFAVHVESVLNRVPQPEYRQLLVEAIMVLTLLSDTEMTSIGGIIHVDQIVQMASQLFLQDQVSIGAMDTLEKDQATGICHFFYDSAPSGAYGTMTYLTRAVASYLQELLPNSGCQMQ

[10] = target: Serine/threonine-protein kinase D1 (Homo sapiens) (UniProt Q15139)
[11] = target: RAF proto-oncogene serine/threonine-protein kinase (Homo sapiens) (UniProt P04049)
[12] = target: Tyrosine-protein kinase receptor TYRO3 (Homo sapiens) (UniProt Q06418)
[13] = target: 5-hydroxytryptamine receptor 2A (Homo sapiens) (UniProt P28223); settings: Compound concentration 10.0 uM
[14] = target: D(2) dopamine receptor (Homo sapiens) (UniProt P14416); settings: Compound concentration 10.0 uM
[15] = target: D(4) dopamine receptor (Homo sapiens) (UniProt P21917); settings: Compound concentration 10.0 uM
[16] = target: Histamine H1 receptor (Homo sapiens) (UniProt P35367); settings: Compound concentration 10.0 uM
[17] = target: 5-hydroxytryptamine receptor 2B (Homo sapiens, UniProt P41595); assay: GPCRScan assay: inhibition of 5-HT2B; parameters: radioligand conc. used [nm] 1.0 – 2.0, parental cells stable HEK
[18] = target: T1, Serine/threonine-protein kinase TBK1 (Homo sapiens, UniProt Q9UHD2); assay: Biochemical assay (high ATP) with TBK1
T1 sequence (Q9UHD2 whole entry): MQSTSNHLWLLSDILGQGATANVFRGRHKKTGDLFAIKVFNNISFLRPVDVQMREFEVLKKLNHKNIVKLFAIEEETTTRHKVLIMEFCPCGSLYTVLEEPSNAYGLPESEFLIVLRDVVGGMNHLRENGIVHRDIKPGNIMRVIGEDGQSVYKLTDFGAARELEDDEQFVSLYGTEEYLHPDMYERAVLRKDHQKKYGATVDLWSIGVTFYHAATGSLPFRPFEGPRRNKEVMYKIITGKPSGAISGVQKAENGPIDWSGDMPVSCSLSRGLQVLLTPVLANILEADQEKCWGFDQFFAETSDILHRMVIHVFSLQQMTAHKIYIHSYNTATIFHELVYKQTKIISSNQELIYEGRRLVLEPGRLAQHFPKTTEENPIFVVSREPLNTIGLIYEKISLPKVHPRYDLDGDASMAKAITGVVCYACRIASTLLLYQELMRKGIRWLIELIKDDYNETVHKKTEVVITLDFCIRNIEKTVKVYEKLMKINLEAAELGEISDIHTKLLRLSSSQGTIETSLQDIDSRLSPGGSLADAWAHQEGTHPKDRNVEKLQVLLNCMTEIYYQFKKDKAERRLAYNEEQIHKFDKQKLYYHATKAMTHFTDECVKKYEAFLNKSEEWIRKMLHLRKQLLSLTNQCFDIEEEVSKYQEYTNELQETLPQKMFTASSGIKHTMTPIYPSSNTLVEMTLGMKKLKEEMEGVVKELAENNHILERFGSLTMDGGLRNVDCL

[19] = target: Mitogen-activated protein kinase kinase kinase 19 (Homo sapiens, UniProt Q56UN5); assay: NanoBRET with MAP3K19
[20] = target: Serine/threonine-protein kinase 17A (Homo sapiens, UniProt Q9UEE5); assay: NanoBRET with STK17A
[21] = target: Dual specificity mitogen-activated protein kinase kinase 5 (Homo sapiens, UniProt Q13163); assay: NanoBRET with MAP2K5
[22] = target: Receptor-type tyrosine-protein kinase FLT3 (Homo sapiens, UniProt P36888); assay: NanoBRET with FTL3
[23] = target: Sodium-dependent dopamine transporter (Homo sapiens) (UniProt Q01959); settings: Compound concentration 10.0 uM
[24] = target: GABA-A receptor; anion channel (Rattus norvegicus) (UniProt O09028+P15431+P18506+P18508+P19969+P20236+P23574+P23576+P28471+P28473+P30191+P62813+P63079+P63138+Q91ZM7+Q9ES14); settings: Compound concentration 10.0 uM
[25] = target: T1, Serine/threonine-protein kinase TBK1; assay: cell-based
[26] = target: Inhibitor of nuclear factor kappa-B kinase subunit epsilon (Homo sapiens, UniProt Q14164); assay: cell-based
[27] = Compound concentration 1000.0 nM
[28] = Compound concentration 100.0 nM

Chain of Cyclin-dependent kinase 13 (Homo sapiens) (Q14004 whole entry, looked up): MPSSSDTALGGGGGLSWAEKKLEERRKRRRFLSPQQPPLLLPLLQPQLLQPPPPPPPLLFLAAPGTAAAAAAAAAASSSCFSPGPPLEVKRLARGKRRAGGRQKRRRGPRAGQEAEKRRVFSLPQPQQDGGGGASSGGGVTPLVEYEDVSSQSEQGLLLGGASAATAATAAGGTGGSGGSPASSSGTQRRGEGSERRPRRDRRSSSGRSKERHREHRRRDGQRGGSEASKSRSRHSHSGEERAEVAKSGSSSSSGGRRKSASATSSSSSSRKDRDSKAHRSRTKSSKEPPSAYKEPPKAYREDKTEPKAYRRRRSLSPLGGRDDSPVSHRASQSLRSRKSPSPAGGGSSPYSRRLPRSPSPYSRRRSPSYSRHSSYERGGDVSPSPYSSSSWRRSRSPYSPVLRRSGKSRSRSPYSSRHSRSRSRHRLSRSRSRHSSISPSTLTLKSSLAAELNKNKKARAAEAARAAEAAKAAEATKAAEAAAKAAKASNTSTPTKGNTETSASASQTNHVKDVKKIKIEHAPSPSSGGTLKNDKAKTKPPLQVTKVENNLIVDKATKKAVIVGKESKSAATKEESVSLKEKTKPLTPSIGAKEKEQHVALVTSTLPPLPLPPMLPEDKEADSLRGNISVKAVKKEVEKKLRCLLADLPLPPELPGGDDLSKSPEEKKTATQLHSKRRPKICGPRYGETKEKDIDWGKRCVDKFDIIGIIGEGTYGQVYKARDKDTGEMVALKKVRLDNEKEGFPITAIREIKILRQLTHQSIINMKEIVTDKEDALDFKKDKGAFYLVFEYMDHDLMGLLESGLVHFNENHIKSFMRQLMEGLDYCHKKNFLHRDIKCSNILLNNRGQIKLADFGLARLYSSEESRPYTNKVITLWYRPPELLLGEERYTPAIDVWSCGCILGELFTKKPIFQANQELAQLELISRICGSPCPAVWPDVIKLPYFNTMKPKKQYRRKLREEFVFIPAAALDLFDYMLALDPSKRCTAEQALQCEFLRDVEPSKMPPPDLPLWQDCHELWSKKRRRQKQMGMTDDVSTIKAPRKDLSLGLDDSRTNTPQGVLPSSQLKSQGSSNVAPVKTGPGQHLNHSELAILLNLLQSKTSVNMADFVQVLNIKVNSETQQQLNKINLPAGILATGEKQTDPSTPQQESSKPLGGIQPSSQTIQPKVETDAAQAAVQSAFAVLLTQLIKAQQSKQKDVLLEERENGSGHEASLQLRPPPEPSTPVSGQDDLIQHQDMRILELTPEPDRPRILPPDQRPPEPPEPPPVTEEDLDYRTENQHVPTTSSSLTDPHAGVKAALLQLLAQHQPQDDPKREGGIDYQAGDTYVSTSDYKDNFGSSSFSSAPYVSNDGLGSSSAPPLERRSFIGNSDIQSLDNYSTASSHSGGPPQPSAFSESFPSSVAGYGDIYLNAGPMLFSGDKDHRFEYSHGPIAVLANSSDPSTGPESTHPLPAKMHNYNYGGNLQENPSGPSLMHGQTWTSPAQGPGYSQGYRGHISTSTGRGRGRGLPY
Chain of Activin receptor type-2B (Homo sapiens) (Q13705 whole entry): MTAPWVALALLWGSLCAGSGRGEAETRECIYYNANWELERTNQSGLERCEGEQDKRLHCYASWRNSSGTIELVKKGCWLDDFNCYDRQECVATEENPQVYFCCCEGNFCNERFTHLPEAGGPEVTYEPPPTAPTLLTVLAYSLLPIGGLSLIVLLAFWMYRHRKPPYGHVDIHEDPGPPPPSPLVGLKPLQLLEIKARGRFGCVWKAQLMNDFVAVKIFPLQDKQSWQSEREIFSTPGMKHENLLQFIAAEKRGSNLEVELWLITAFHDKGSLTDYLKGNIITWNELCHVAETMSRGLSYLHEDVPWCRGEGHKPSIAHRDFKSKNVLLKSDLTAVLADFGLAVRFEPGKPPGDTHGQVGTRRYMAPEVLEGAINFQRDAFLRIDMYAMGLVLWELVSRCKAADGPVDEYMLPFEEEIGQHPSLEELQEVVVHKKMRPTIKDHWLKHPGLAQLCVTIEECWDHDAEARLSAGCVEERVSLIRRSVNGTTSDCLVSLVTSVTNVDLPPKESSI

CN(C)c1ncnc(-c2ccc3nc(Nc4cc(CN5CCN(C(=O)CC(F)(F)F)CC5)ccn4)[nH]c3c2)c1Cl [BAY-440]
inactive: residual activity [1, 27] 100% | residual activity [2, 27] 84% | residual activity [3, 27] 90% | residual activity [4, 27] 100% | residual activity [5, 27] 95% | residual activity [6, 27] 100% | residual activity [7, 27] 86% | residual activity [8, 27] 62% | residual activity [9, 27] 100% | residual activity [10, 27] 100% | residual activity [11, 27] 100% | residual activity [12, 27] 100% | inhibition [13] -4.19% | inhibition [14] 10.6% | inhibition [15] 7.18% | inhibition [16] 26.4%

C[C@H](c1ccnc(Nc2nc3ccc(-c4cc(N(C)C)ncn4)cc3[nH]2)c1)N1CCN(C(=O)CC(F)(F)F)CC1 [BAY-985]
1290 nM: Ki ([17]; read-out: pKi (converted))
1310 nM: Ki ([17]; read-out: Ki)
active: IC50 [18] 18 nM | IC50 [25] 312 nM | IC50 [26] 1730 nM
> 20000 nM (not active): IC50 [19] | IC50 [20] | IC50 [21] | IC50 [22]
inactive: residual activity [1, 28] 81% | residual activity [2, 28] 100% | residual activity [3, 28] 96% | residual activity [4, 28] 100% | residual activity [5, 28] 100% | residual activity [6, 28] 100% | residual activity [7, 28] 100% | residual activity [8, 28] 100% | residual activity [9, 28] 81% | residual activity [10, 28] 100% | residual activity [11, 28] 97% | residual activity [12, 28] 96% | inhibition [14] 5.66% | inhibition [15] 8.17% | inhibition [23] 30.5% | inhibition [16] 35% | inhibition [24] 23%
